In patent publication US11149277B2, “Method of producing enriched exosomes” (National Health Research Institutes, priority 2016, dated 2021):

What was measured:
[1] = test system: HMLE cells; test: Exosome markers in CM-P4 fraction of non-stem HMLE cells; format: cell-based; conditions: 2 days treatment
Excerpt: FIG. 2 includes graphs and blots showing analyses of GW-treated NAMEC P4 fractions. CM-P4 GW-treated NAMECs were collected and subjected to (A) NanoSight Nanoparticle Tracking Analysis (NTA) and (B) Dynamic Light Scattering/Zeta Potential Analysis (DLS). […] D: particle diameter. RN: relative number. (C) is a blot showing the amounts of the CD44 stem cell marker and the CD81, CD9, TSG101, Alix, HSP70 and GAPDH exosome markers measured in the indicated CM-P4 fractions and cell lysates. The culture media and cell lysates were collected from the same number of NAMECs treated with vehicle (Crl), GW627368X (GW) or PGE2 (1 μM) for 4 days. (D) is a blot showing the amounts of the GAPDH and CD81 exosome markers and the CD44 stem cell marker measured in the CM-P4 fraction of NAMECs (CD44hi/CD24− stem cells) or CD44lo/CD24+ non-stem cells (HMLE cells) treated with vehicle (Crl) or GW for 2 days. 1×: P4 exosome fraction released by 1×10^6 cells; 2×: P4 exosome fraction released by 2×10^6 cells. […] (E) is a blot showing that the CD44 stem cell marker and GAPDH and CD81 exosome markers were measured in the indicated P4 conditioned medium fractions of NAMECs treated with vehicle (Crl), GW627368X (GW, 1 μg/ml), AH23848 (EP4 antagonist; 0.4, 2, 4 μg/ml), or AH6809 (EP1/2/3 antagonist; 0.8, 4, 8 μg/ml). […]

[2] = test system: NAMECs; test: Resistance of NAMECs to 0.05% trypsin (MET); format: cell-based, human; conditions: 4 days treatment
Method: (§1) FIG. 3 includes a set of images and two graphs. (A) is a set of bright-field images of NAMECs treated with vehicle, GW627368X, Dynasore (1 μM), or GW627368X plus Dynasore (0.5, 1, 1.5 μM) for 4 days. Scale bar, 100 μm. (B) is a graph showing the percentage of NAMECs treated with vehicle, GW627368X, Dynasore (1 μM), or GW627368X plus Dynasore (0.75 and 1 μM) that were resistant to 0.05% trypsin. Data are means±SEM, (n=3). ***P≤0.001. (C) is a graph showing Boyden chamber migration of NAMECs treated with vehicle (Crl), GW627368X, Dynasore (1 μM), or GW627368X plus Dynasore (0.5, 0.75, 1 μM) for 4 days. Data are means±SEM (n=3). **P≤0.005. ***P≤0.001.

[3] = test system: NAMECs; test: NanoSight Nanoparticle Tracking Analysis of CM-P4 fractions of NAMEC culture; format: cell-based, human
Excerpt: FIG. 1 includes a TEM image and a graph. (A) is a TEM image of the P4 medium fraction of NAMECs treated with GW627368X (GW) for 4 days. Scale bar, 1 μm. (B) is a graph showing the number of particles in the CM-P4 fractions of NAMEC culture counted by using NanoSight Nanoparticle Tracking analysis. Top panel: Quantification of exosome release is shown as the ratio of [P4 GAPDH marker level]/[cell number]. Data are means±SEM (n=3). *P≤0.05. **P≤0.005. Bottom table: Quantification of exosome release is shown as the number of particles of the CM-P4 fractions released per cell measured by nanoparticle tracking analysis.
(§2) The isolated human mammary epithelial stem cells (NAMECs) were cultured in mammary epithelial cell basal medium (250 ml MCDB-170, 250 ml DMEM-F12, 1.2 g sodium bicarbonate, 2.5 μg EGF, 0.25 mg Hydrocortisone, 2.5 mg insulin, 35 mg BPE) with or without containing EP4 antagonist, i.e., GW627368X (GW) at 1 μg/ml, or AH23848 (AH) at 4 μg/ml, for 4 days. The culture medium was supplied with 0.5 μg/ml of GW or 2 μg/ml of AH23848 at the third day of the culturing period. For the induction of EP4 antagonist-induced exosomes from mouse mammary epithelial cells, cells were cultured in a medium containing 10 μg/ml of GW for 4 days.
The culture media were centrifuged at 300 g for 5 min to remove cells (P1), at 2,000 g for 20 min (P2), then at 10,000 g for 30 min (P3) all at 4° C. Dead cells and cell debris were removed at 300 g (P1) and 1200 g (P2). Finally, exosomes (P4) were separated from the supernatant by centrifugation at 110,000 g for 60 min. The P4 exosome pellet was washed once in PBS and then re-suspended in PBS for further application.

[4] = test system: NAMECs; test: Western blot of exosome markers and proteins in CM-P4 fractions of NAMECs; format: cell-based, human
Excerpt: FIG. 2 includes graphs and blots showing analyses of GW-treated NAMEC P4 fractions. CM-P4 GW-treated NAMECs were collected and subjected to (A) NanoSight Nanoparticle Tracking Analysis (NTA) and (B) Dynamic Light Scattering/Zeta Potential Analysis (DLS). […] D: particle diameter. RN: relative number. (C) is a blot showing the amounts of the CD44 stem cell marker and the CD81, CD9, TSG101, Alix, HSP70 and GAPDH exosome markers measured in the indicated CM-P4 fractions and cell lysates. The culture media and cell lysates were collected from the same number of NAMECs treated with vehicle (Crl), GW627368X (GW) or PGE2 (1 μM) for 4 days. (D) is a blot showing the amounts of the GAPDH and CD81 exosome markers and the CD44 stem cell marker measured in the CM-P4 fraction of NAMECs (CD44hi/CD24− stem cells) or CD44lo/CD24+ non-stem cells (HMLE cells) treated with vehicle (Crl) or GW for 2 days. 1×: P4 exosome fraction released by 1×10^6 cells; 2×: P4 exosome fraction released by 2×10^6 cells. […] (E) is a blot showing that the CD44 stem cell marker and GAPDH and CD81 exosome markers were measured in the indicated P4 conditioned medium fractions of NAMECs treated with vehicle (Crl), GW627368X (GW, 1 μg/ml), AH23848 (EP4 antagonist; 0.4, 2, 4 μg/ml), or AH6809 (EP1/2/3 antagonist; 0.8, 4, 8 μg/ml). (F) is a blot showing the HSP70, GAPDH and CD81 exosome markers measured in the indicated CM-P4 of NAMECs, NAMEC-shEP4-1 cells, and NAMEC-shEP4-2 cells treated with vehicle or with doxycycline (Dox, 2 μg/ml) (top panel). Doxyclycline (Dox) induced the production EP4 shRNA in NAMEC-shEP4 cells (bottom panel).
The P4 exosome fractions and cell lysates were collected from NAMECs treated with vehicle (Crl), GW627368X (GW), or PGE2 for 4 days. 1×: P4 exosome fraction released by 2.5×10^5 cells; 5×: P4 exosome fraction released by 12.5×10^5 cells. Hg: Hg-integrin β1, Lg: Lg-integrin β1, H: H-integrin α6, L: L-integrin α6, pg: pg-LRP6, g: g-LRP6, Ng: Ng-LRP6.
as §2
The culture media were centrifuged at 300 g for 5 min to remove cells (P1), at 2,000 g for 20 min (P2), then at 10,000 g for 30 min (P3) all at 4° C. Dead cells and cell debris were removed at 300 g (P1) and 1200 g (P2). […]

[5] = test system: NAMECs; test: Boyden chamber migration of NAMECs; format: cell-based, human; conditions: GW pre-treatment, 4 days
Method: as §1

## CCOc1c2c(c(OCC)c3ccccc13)C(=O)N(c1ccc(CC(=O)NS(=O)(=O)c3ccccc3)cc1)C2 [GW627368X]
[1]
  exosome release from non-stem HMLE cells (CD81, CD44, GAPDH): did not increase exosome release
[2]
  resistance to disassociation by 0.05% trypsin: more resistant
[3]; CM-P4 fraction, 4 days, PGE2 1 μM
  concentration of released membrane vesicles: ~5.4×10^4 particle/cell
[3]; particle numbers in CM-P4
  release of membrane vesicles compared to untreated and PGE2-treated NAMECs: significantly triggered the release of membrane vesicles
[4]; 4 days treatment
  amount of total exosomal proteins released vs vehicle or PGE2: much greater
[4]; AH23848 0.4, 2, 4 μg/ml, AH6809 0.8, 4, 8 μg/ml, GW 1 μg/ml
  exosome release by exosome markers in CM-P4 fractions: Large amounts
[5]
  decrease of number of migrating cells: ~60%
